The text below walks through data of patent publication US20200179331A1, “Peptide-Artesunate Conjugates as Targeted Anti-Cancer Agents” (priority 2017, published 2020).

The conditions of series [1]: reference [50]; cell line not given; read-out: IC50, anticancer ability of commonly used anticancer drugs; cited from earlier work.
The next series relates to HCT116 cells. Kind of series: Sulforhodamine B (SRB) colorimetric assay, HCT116 proliferation. Particulars: Homo sapiens, HCT-116, 96-well format, read-out: IC50, inhibition of the proliferation of HCT116 cells. The series is classed as cell-based. How it is done:
Mouse B16-F10 melanoma cancer cells and human HCT116 colon cancer cells were grown in culture respectively in DMEM medium or McCoy's 5 A medium supplemented with 10% fetal bovine serum and 5% antibiotic in a 5% CO2 atmosphere at 37° C. Cultures were divided 1:2 every 48 h to an approximate cell density of 1.2 million cells per ml and used for experiments after 24 hours of growth in culture.

A further series deals with Caco-2 cells. Kind of series: MTT assay, Caco-2 cells (HER2-positive). How it is done: (§1) CCD-18 cells were maintained in Dulbecco's minimal essential medium (DMEM, ATCC) supplemented with 10% fetal bovine serum (FBS, ATCC), 100 U/ml penicillin G, and 100 μg/ml streptomycin at 37° C. in a humid atmosphere of 5% CO2 atmosphere. Caco-2 cells were maintained in Dulbecco's minimal essential medium (DMEM, ATCC) supplemented with 20% fetal bovine serum (FBS,ATCC), 100 U/ml penicillin G, and 100 μg/ml streptomycin at 37° C. in a humid atmosphere of 5% CO2 atmosphere; culture medium was replaced with a fresh medium every 2-3 days. All experiments were performed with actively growing cells in logarithmic growth phase.
(§2) The assay was carried out following a reported procedure. In brief, approximately 1,000 to 5,000 cells were plated per well in 96-well plate. The plates were incubated at 37° C. for 48 or 72 hours in a humidified, 5% CO2 atmosphere. Cells were incubated either with Artesunate or with ART-HER2 conjugate at various concentrations. To measure mitochondrial activity, a metric for cell viability, 15 μL of [3-{4, 5-dimethylthiazol-2-yl)-2, 5-diphenyltetrazolium bromide (MTT) was added to each well and incubated at 37° C. for 4 hours in a humidified, 5% CO2 atmosphere. After incubation, 100 μl of the solubilization solution/stop mix was added to each well. The blue formazan product formed by reduction of MTT by mitochondrial dehydrogenase in viable cells was then measured by absorbance at 570 nm.
(§3) The cytotoxicity of Artesunate was then investigated with two human colon cell lines, a normal colon cell line CCD-18 and a cancerous colon cell line Caco-2, using the well-established MTT assay. […] Dose-dependent assays were performed in 96-well format and IC50 values were determined by plotting the cell viability against Artesunate concentration (FIG. 11 and FIG. 12).
On the technique in general: Formazan colour is commonly taken as a measure of viable cells.

A short description of series [2]: Dichlorofluorescein assay (reactive oxygen species formation with Fe2+). The note with it: for reactive oxygen species formation, DCF fluorescence: 20 μM, Fe2+ 5-25 μM, 10 μM DCFH-DA, 30 min. How it is done:
The assay was carried out following a reported procedure either in presence of hydrogen peroxide, Artesunate with and without Fe2+, and ART-HER2 conjugate with and without Fe2+[43]. In this assay non-fluorescent DCFH-DA (2′, 7′-Dichlorofluorescin diacetate treated with methanol and NaOH, as described in reference 43) is converted to a fluorescent derivative, known as dichlorofluorescein (DCF), in presence of an oxidizing agent (e.g. reactive oxygen species). By quantifying the concentration of fluorescent DCF, the concentration of oxidizing agent can be determined.
Formation of free radical species from the reaction of Artesunate with […] was additionally measured by dichlorofluorescein assays. Oxidation of 2′, 7′-Dichlorofluorescin diacetate (DCFH-DA) by reactive oxygen species generates dichlorofluorescein, which is fluorescent (˜520 nm).

Series [3] is described as follows: Deoxyribose degradation assay (free radical formation with Fe2+). Particulars: 200 μM, Fe2+ 5-25 μM, 10 minutes. On the procedure:
This assay quantifies the formation of hydroxyl radicals or peroxyl radicals. The assay was carried out following a reported procedure. Briefly, 500 μL reaction volumes containing 10 mM 2-deoxyribose, 100 μM ascorbic acid, and various concentrations of Fe2+ were prepared. Degradation of 2-deoxyribose was initiated either by addition of 200 μM of hydrogen peroxide or 200 μM of Artesunate. The reaction was allowed to run for 10 minutes and then stopped by the addition of 500 μL of 10% (w/v) trichloroacetic acid (TCA) followed by 0.5 mL 1% 2-thiobarbituric acid (TBA). After heating at 80° C. for 15 minutes, the absorbance at 532 nm was measured.
To measure the concentration of free radical species generated by Artesunate reacting with Fe^2+, 2-deoxyribose degradation assays were formed (FIG. 6). Degradation of 2-deoxyribose by action of hydrogen peroxide is shown as a positive control and 2-deoxyribose alone is shown as a negative control (FIG. 6).

A short description of series [4]: MTT assay, CCD-18 cells (HER2-negative normal colon). Particulars: human, CCD-18 cells (normal colon, HER2-negative). On the procedure:
as §1
The assay was carried out following a reported procedure. In brief, approximately 1,000 to 5,000 cells were plated per well in 96-well plate. The plates were incubated at 37° C. for 48 or 72 hours in a humidified, 5% CO2 atmosphere. […] The blue formazan product formed by reduction of MTT by mitochondrial dehydrogenase in viable cells was then measured by absorbance at 570 nm.
as §3

Series [5] is described as follows: MTT assay, Caco-2 cells (HER2-positive). How it is done:
as §1, §2, §3

Structures are written as SMILES. Like-named read-outs stand apart in the source and are kept apart here. Residues, ends and D or L forms follow the SMILES beside them. *: point of attachment. X1 = C[C@H]1[C@H](OC(=O)CCC(=O)*)O[C@@H]2O[C@@]3(C)CC[C@H]4[C@H](C)CC[C@@H]1[C@@]24OO3

On to `N.N.O=C([O-])C1(C(=O)[O-])CCC1.[Pt+2]` [carboplatin], for which the IC50 in series [1] was approximately 12 µM.

Take `C[C@H]1[C@H](OC(=O)CCC(=O)O)O[C@@H]2O[C@@]3(C)CC[C@H]4[C@H](C)CC[C@@H]1[C@@]24OO3` [Artesunate]: the IC50 with HCT116 cells is approximately 0.63 µM; in the series on Caco-2 cells (Homo sapiens, Caco-2, read-out: IC50, cytotoxicity against Caco-2 cells) it was approximately 0.97 µM; in series [4] it was approximately 5.6 µM. Besides, the “fold higher toxicity against Caco-2 cells compared to CCD-18 cells” value in the series with Caco-2 cells (Caco-2) is given as approximately 5.7 fold. In series [2], the “reactive oxygen species formation, DCF fluorescence” value is “Fe^2+-dependent activation of dichlorofluorescein fluorescence”. Further, the “free radical generation, 2-deoxyribose degradation (absorbance 532 nm)” value in series [3] is listed as “reacts with Fe^2+ to generate free radical species that are sufficient to degrade 2-deoxyribose”.

Take `O=c1[nH]cc(F)c(=O)[nH]1` [5-FU, 5-fluorouracil]: the IC50 in series [1] was approximately 15 µM.

Regarding `CC(C)C[C@H](NC(=O)[C@H](CO)NC(=O)[C@H](Cc1ccc(O)cc1)NC(=O)[C@H](CS)NC(=O)[C@H](CS)NC(=O)[C@H](CCCCN)NC(=O)CNC(=O)[C@H](CO)NC(=O)CNC(=O)CCC(=O)O[C@@H]1O[C@@H]2O[C@@]3(C)CC[C@H]4[C@H](C)CC[C@@H]([C@H]1C)[C@@]24OO3)C(N)=O` [ART-HER2 conjugate] (X1-GSGKCCYSL-NH2), the IC50 in series [5] was approximately 15 µM. Further, in series [2] (2-deoxyribose degradation and dichlorofluorescein assays, increasing Fe2+), the “free radical species formation in presence of Fe2+ (in words)” value is “increases in presence of increasing levels of Fe^+”.

For the compound `OO` [H2O2, hydrogen peroxide], in series [2], the “reactive oxygen species formation, DCF fluorescence” value is given as “Fe^2+-dependent activation of dichlorofluorescein fluorescence”.
